Legend:
[1] = system: Interleukin-1β (IL-1β) Production in HL-60 cells; experiment: Inhibitory activity against interleukin-1β production (Test 1); type: cell-based; settings: Homo sapiens, 72 h, lipopolysaccharide 10 μg/ml, culturing for 3 days, compared with control without test sample
Description: (Inhibitory activity against interleukin-1β production)
HL-60 cells were cultured for 4 days until confluence on RPMI 1640 medium with 10% fetal bovine serum (FBS) added thereto. The medium was centrifuged. The supernatant was discarded, and the cells were then suspended at 1×10^6 cells/me on RPMI 1640 medium with 3% FBS, and lipopolysaccharide was added to give a final concentration of 10 μg/ml. The culture was inoculated at 1 ml/well to a 24-well plate. A test compound was added at 1 μl/well, followed by culturing for 3 days. Three days later, the amount of interleukin-1β in each […] was determined by a comparison in yield with a control to which no test sample was added.

SMILES	IC50 [1] [µM]	melting point
COc1ccc(-c2cc(=O)n(CCCl)nc2-c2ccc(OC)cc2)cc1 [Comp. Comp'd 1, reference compound]	29	–
COc1ccc(-c2cc(=O)n(CCO)nc2-c2ccc(OC)cc2)cc1 [Comp. Comp'd 2, reference compound]	46	–
COc1ccc(-c2cc(=O)[nH]nc2-c2ccc(OC)cc2)cc1 [Comp. Comp'd 4, reference compound]	31.6	–
CNC(=O)c1cc(-c2ccc(OC)cc2)nn(CC(C)C)c1=O [Example 43, 2-Isobutyl-6-(4-methoxyphenyl)-4-methylcarbamoyl-2H-pyridazin-3-one]	0.357	124.9 to 125.2 °C
CNC(=O)c1cc(-c2ccc(OC)cc2)nn(CC2CC2)c1=O [Example 61, 2-Cyclopropylmethyl-6-(4-methoxyphenyl)-4-methylcarbamoyl-2H-pyridazin-3-one]	0.038	136.6 to 137.5 °C
CNC(=O)c1cc(-c2ccc(OC)c(F)c2)nn(CC2CC2)c1=O [Example 63, 2-Cyclopropylmethyl-6-(3-fluoro-4-methoxyphenyl)-4-methylcarbamoyl-2H-pyridazin-3-one]	0.31	–
CCNC(=O)c1cc(-c2ccc(OC)cc2)nn(CC2CC2)c1=O [Example 66, 2-Cyclopropylmethyl-4-ethylcarbamoyl-6-(4-methoxyphenyl)-2H-pyridazin-3-one]	0.11	136.3 to 136.9 °C
CNC(=O)c1cc(-c2ccc(OC)cc2)nn(Cc2ccc(NC(=O)c3cccnc3)cc2)c1=O [Example 81, 6-(4-Methoxyphenyl)-4-methylcarbamoyl-2-[4-(3-pyridylcarbonylamino)benzyl]-2H-pyridazin-3-one]	–	226.7 to 227.6 °C (dec.)
CNC(=O)c1cc(-c2ccc(OC)cc2)nn(Cc2ccc(Cl)cc2Cl)c1=O [Example 82, 2-(2,4-Dichlorobenzyl)-6-(4-methoxy-phenyl)-4-methylcarbamoyl-2H-pyridazin-3-one]	–	154.2 to 156.2 °C
CNC(=O)c1cc(-c2ccc(OC)cc2)nn(CC=Cc2ccc(Cl)cc2)c1=O [Example 85, 2-(4-Chlorocinnamyl)-6-(4-methoxyphenyl)-4-methylcarbamoyl-2H-pyridazin-3-one]	–	184.2 to 185.4 °C
COc1ccc(-c2cc(C(=O)O)c(=O)n(CC=Cc3ccc(Cl)cc3)n2)cc1 [Example 86, 4-Carboxy-2-(4-chlorocinnamyl)-6-(4-methoxyphenyl)-2H-pyridazin-3-one]	–	222.6 to 224 °C (dec.)
CCOC(=O)Nc1cc(-c2ccc(OC)cc2)nn(CC=Cc2ccc(Cl)cc2)c1=O [Example 87, 2-(4-Chlorocinnamyl)-4-ethoxycarbonylamino-6-(4-methoxyphenyl)-2H-pyridazin-3-one]	0.05	171.2 to 172.1 °C
COc1ccc(-c2cc(NC(=O)OC(C)C)c(=O)n(CC=Cc3ccc(Cl)cc3)n2)cc1 [Example 88, 2-(4-chlorocinnamyl)-6-(4-methoxyphenyl)-4-isopropoxycarbonylamino-2H-pyridazin-3-one]	–	123.9 to 127.4 °C
CCCCOC(=O)Nc1cc(-c2ccc(OC)cc2)nn(CC=Cc2ccc(Cl)cc2)c1=O [Example 89, 4-n-butoxycarbonylamino-2-(4-chlorocinnamyl)-6-(4-methoxyphenyl)-2H-pyridazin-3-one]	–	150.2 to 150.9 °C
COc1ccc(-c2cc(NC(=O)OCc3ccccc3)c(=O)n(CC=Cc3ccc(Cl)cc3)n2)cc1 [Example 90, 4-benzyloxycarbonylamino-2-(4-chlorocinnamyl)-6-(4-methoxyphenyl)-2H-pyridazin-3-one]	–	190.5 to 191.7 °C
COc1ccc(-c2cc(NC(=O)OCc3ccc(SC)cc3)c(=O)n(CC=Cc3ccc(Cl)cc3)n2)cc1 [Example 91, 2-(4-chlorocinnamyl)-6-(4-methoxyphenyl)-4-[4-(methylthio)benzyloxycarbonylamino]-2H-pyridazin-3-one]	–	187.6 to 188.7 °C
COc1ccc(-c2cc(C(=O)O)c(=O)n(CC=C(C)C)n2)cc1 [Example 92, 4-carboxy-6-(4-methoxyphenyl)-2-(3-methyl-2-butenyl)-2H-pyridazin-3-one]	–	153.5 to 156.6 °C
CCOC(=O)Nc1cc(-c2ccc(OC)cc2)nn(CC=C(C)C)c1=O [Example 93, 4-ethoxycarbonylamino-6-(4-methoxy-phenyl)-2-(3-methyl-2-butenyl)-2H-pyridazin-3-one]	–	130.2 to 131.2 °C
CCOC(=O)Nc1cc(-c2ccc(OC)cc2)nn(CC2CC2)c1=O [Example 95, 2-cyclopropylmethyl-4-ethoxycarbonylamino-6-(4-methoxyphenyl)-2H-pyridazin-3-one]	–	119.1 to 119.6 °C
CCOC(=O)Nc1cc(-c2ccc(OC)cc2)nn(Cc2ccccc2)c1=O [Example 97, 2-benzyl-4-ethoxycarbonylamino-6-(4-methoxyphenyl)-2H-pyridazin-3-one]	–	152.1 to 162.5 °C
COc1ccc(-c2cc(C(=O)O)c(=O)n(CC=Cc3ccc(Cl)cc3)n2)cc1Cl [Example 105, 4-carboxy-2-(4-chlorocinnamyl)-6-(3-chloro-4-methoxyphenyl)-2H-pyridazin-3-one]	–	183 to 183.8 °C
COc1ccc(-c2cc(N)c(=O)n(CC=Cc3ccc(Cl)cc3)n2)cc1 [Example 111, 4-amino-2-(4-chlorocinnamyl)-6-(4-methoxyphenyl)-2H-pyridazin-3-one]	0.53	142.7 to 143.2 °C
COc1ccc(-c2cc(NC=O)c(=O)n(CC=Cc3ccc(Cl)cc3)n2)cc1 [Example 112, 2-(4-chlorocinnamyl)-4-formylamino-6-(4-methoxyphenyl)-2H-pyridazin-3-one]	0.387	213 to 213.8 °C
COc1ccc(-c2cc(NC(C)=O)c(=O)n(CC=Cc3ccc(Cl)cc3)n2)cc1 [Example 113, 4-acetylamino-2-(4-chlorocinnamyl)-6-(4-methoxyphenyl)-2H-pyridazin-3-one]	–	158.7 to 161.9 °C
CCC(=O)Nc1cc(-c2ccc(OC)cc2)nn(CC=Cc2ccc(Cl)cc2)c1=O [Example 114, 2-(4-chlorocinnamyl)-6-(4-methoxy-phenyl)-4-propionylamino-2H-pyridazin-3-one]	–	147.7 to 148.6 °C

Second part, the compound after the results:

IC50 [1] [µM]	melting point	SMILES
–	148.4 to 149.2 °C	CNc1cc(-c2ccc(OC)cc2)nn(CC=Cc2ccc(Cl)cc2)c1=O [Example 117, 2-(4-chlorocinnamyl)-6-(4-methoxyphenyl)-4-methylamino-2H-pyridazin-3-one]
–	113.5 to 114.2 °C	COc1ccc(-c2cc(NC(=O)OCCCCCc3ccccc3)c(=O)n(CC=Cc3ccc(Cl)cc3)n2)cc1 [Example 118, 2-(4-chlorocinnamyl)-6-(4-methoxyphenyl)-4-[N-(3-phenylpropyl)ethoxycarbonylamino]-2H-pyridazin-3-one]
–	115.1 to 115.6 °C	COc1ccc(-c2cc(N)c(=O)n(Cc3ccccc3)n2)cc1 [Example 121, 4-amino-2-benzyl-6-(4-methoxyphenyl)-2H-pyridazin-3-one]
–	195 to 195.5 °C	COc1ccc(-c2cc(NS(C)(=O)=O)c(=O)n(Cc3ccccc3)n2)cc1 [Example 122, 2-benzyl-4-methanesulfonylamino-6-(4-methoxyphenyl)-2H-pyridazin-3-one]
–	200.2 to 201 °C	COc1ccc(-c2cc(NC(=O)NC(C)C)c(=O)n(Cc3ccccc3)n2)cc1 [Example 123, 2-benzyl-4-(3-isopropylureido)-6-(4-methoxyphenyl)-2H-pyridazin-3-one]
–	110.8 to 111.3 °C	COc1ccc(-c2cc(N)c(=O)n(CC3CC3)n2)cc1 [Example 124, 4-amino-2-cyclopropylmethyl-6-(4-methoxyphenyl)-2H-pyridazin-3-one]
–	195.8 to 197 °C	COc1ccc(-c2cc(NC(=O)NC(C)C)c(=O)n(CC3CC3)n2)cc1 [Example 125, 2-cyclopropylmethyl-4-(3-isopropylureido)-6-(4-methoxyphenyl)-2H-pyridazin-3-one]
–	203.3 to 203.9 °C	COc1ccc(-c2cc(NS(C)(=O)=O)c(=O)n(CC3CC3)n2)cc1 [Example 126, 2-cyclopropylmethyl-4-methanesulfonylamino-6-(4-methoxyphenyl)-2H-pyridazin-3-one]
–	211 to 212 °C	NC(=O)c1cc(-c2ccc(F)c(Cl)c2)nn(CC=Cc2ccccc2)c1=O [Example 127, 4-carbamoyl-6-(3-chloro-4-fluorophenyl)-2-cinnamyl-2H-pyridazin-3-one]
0.4	124.2 to 125 °C	CNC(=O)C1CC(c2ccc(OC)cc2)=NN(CC(C)C)C1=O (centres unmarked) [Example 128, 4,5-dihydro-2-isobutyl-6-(4-methoxyphenyl)-4-methylcarbamoyl-2H-pyridazin-3-one]
–	178 to 178.5 °C	CNC(=S)c1cc(-c2ccc(OC)c(F)c2)nn(CC2CC2)c1=O [Example 129, 2-cyclopropylmethyl-6-(3-fluoro-4-methoxyphenyl)-4-methylthiocarbamoyl-2H-pyridazin-3-one]
–	116 to 116.6 °C	CNC(=S)c1cc(-c2ccc(OC)cc2)nn(CC(C)C)c1=O [Example 130, 2-isobutyl-6-(4-methoxyphenyl)-4-methylthiocarbamoyl-2H-pyridazin-3-one]

— patent US6403586B1, “Pyridazine derivatives and drugs containing the same as the active ingredient” (Kowa Co., Ltd., priority 1998, dated 2002)
